Experimental data as given in US11559482B2, “Biodegradable polyethylene glycol based water-insoluble hydrogels” (Ascendis Pharma A/S, priority 2009, dated 2023).

Test: Injectability: force versus flow using a 30 G needle
Format: physicochemical
Conditions: 1 mL syringe
Experimental: 5 mL insulin-linker-hydrogel prodrug 29 (bead size distribution from 32-75 μm, 18 mg insulin/ml insulin-linker-hydrogel prodrug suspension) was buffer exchanged into pH 5.0 succinic acid/tris (10 mM, 40 g/L mannitol; 10 g/L trehalose dihydrate; 0.05% TWEEN-20). The insulin-linker-hydrogel prodrug suspension was filled into a 1 mL syringe (length 57 mm) via a 20 G needle. The 20 G needle was replaced by a 30 G needle and placed into the syringe mounting (Aqua Computer GmbH&Co. KG) and the measurement was started with a piston velocity of 172 mm/min (equals 50 μL/s) (Force test stand: Multitest 1-d, Data recording software: EvaluatEmperor Lite, Version 1.16-015, Forge Gauge: BFG 200 N (all Mecmesin Ltd., UK). Experiments with increasing piston velocities shown in the table below were carried out with a new insulin-linker-hydrogel prodrug sample. The experiments with water and ethylene glycol were carried out accordingly. For all of the experiments the same 30 G needle was used.

SMILES: OCCO [ethylene glycol]
- Force (flow 6 sec/mL, 167 μL/sec, piston velocity 573 mm/min): 83 N
- Force (flow 8 sec/mL, 125 μL/sec, piston velocity 430 mm/min): 62 N
- Force (flow 10 sec/mL, 100 μL/sec, piston velocity 344 mm/min): 51 N
- Force (flow 15 sec/mL, 67 μL/sec, piston velocity 229 mm/min): 35 N
- Force (flow 20 sec/mL, 50 μL/sec, piston velocity 172 mm/min): 27 N
